Data as given in patent publication US20230190887A1, “TARGETING G3BP AGGREGATION TO PREVENT NEURODEGENERATION” (priority 2019, published 2023).
Entries after “also recorded” stand apart in the source; their conditions may differ. Like-named read-outs stand apart in the source and are kept apart here.

Experiments:
DRG neurons = test: Axon growth in dissociated DRG cultures; format: cell-based, rat; conditions: 10 μM Tat-fused peptide added to DRG cultures immediately after plating
Protocol: Cell culture. For primary neuronal cultures, L4-5 DRG were harvested in Hybernate-A medium (BrainBits) and then dissociated as described. After centrifugation and washing in DMEM/F12 (Life Technologies), cells were resuspended in DMEM/F12, 1×N1 supplement (Sigma), 10% fetal bovine serum (Hyclone), and 10 μM cytosine arabinoside (Sigma). Dissociated DRGs were plated immediately on laminin/poly-L-lysine-coated coverslips or transfected (see below) and then plated on coated coverslips.
[…] Neurite outgrowth was assessed 24 h after addition of peptides. For the cortical cultures, 10 μM peptide was applied to the axonal compartment at 3 d in vitro (DIV) and axonal growth was assessed at 6 DIV. For iMotor neurons, 20 μM peptides were immediately added and neurite growth was assessed 24 h later.
For neurite outgrowth, images from 60 h DRG cultures were analyzed for neurite outgrowth using WIS-Neuromath. Axon morphology was visualized using GFP and/or NF immunofluorescence as described. Differentiated hiPSC neuron image acquisition and neurite length quantification was performed using Arrayscan XTI (Thermo Fisher).

[1] = tested on: TIA1, G3BP1 and TDP43 granules in E12.5 motor neurons; test: Stress granule protein granules in neurites of arsenite-treated motor neurons; format: cell-based, mouse
Excerpt: To further evaluate whether mutant TIA1 and TDP43 protein aggregates are affected by G3BP1 190-208 peptide, the inventors expressed the mutant proteins in embryonic motor neurons and assessed granules formed in neurites with or without arsenite treatment either in the presence of G3BP1 190-208 or control 168-189 peptide.
FIG. 6: Cell permeable G3BP1 190-208 peptide decreases granules formed by endogenous TIA1 and TDP43 and exogenous TDP43 and TIA1 mutants in motor neurons after sodium arsenite exposure. (A) Embryonic motor neurons isolated from E12.5 mouse embryos were exposed to sodium arsenite (0.5 mM) for 30 minutes and then treated with 10 μM 190- 208 or […] peptide. After fixation endogenous TIA1 was visualized by immunostaining. The number of TIA1 granules greater than 2 μm^2 per 100 μm of neurite were measured. (B) E12.5 motor neurons were treated as described in (A) and immunostaining was used to detect endogenous G3BP1 protein. The number of G3BP1 granules greater than 2 μm^2 per 100 μm of neurite were measured. […] (C) E12.5 motor neurons expressing TIA1-GFT or ALS/FTD-associated mutants TIA1-A381T, TIA1-E384K were treated with sodium arsenite (0.5 mM) for 30 minutes followed by treatment with either 10 μM 190-208 G3BP1 or 168-189 control peptide. The number of cells containing TIA1-GFP puncta were measured 2 μm^2 per 100 μm of neurite and results are reported relative to non-treated controls. The number of TIA1-GFP granules in neurites decreased for WT and ALS/FTD mutants after treatment with 190-208 G3BP1 as compared to the 168-189 control peptide treated cells. (I)) E12.5 motor neurons expressing flag-tagged wildtype TDP43 or ALS-associated mutants TDP43-M337V and TDP43-Q331.K were treated with sodium arsenite (0.5 mM) for 30 minutes followed by treatment with either 10 μM 190-208 G3BP1 or 168189 control peptide. Flag-TDP43 was detected by immunostaining using the anti-flag-antibody. The number of flag-TDP43 granules greater than 2 μm^2 were measured per 100 μm of neurite and the results are reported relative to non-treated controls. The number of Flag-TDP43 granules in neurites were decreased after treatment with 190-208 G3BP1 peptide as compared to the 168-189 control peptide in both WT and ALS/FTD mutants expressing cells. ([…] over 3 cultures; by two-way ANOVA with Tukey HSD post-hoc),

[2] = tested on: G3BP1-mCherry aggregates in DRG axons; test: Live cell imaging of G3BP1-mCherry granules; format: cell-based, rat; conditions: 10 μM peptide, 15 min
Protocol: Live cell imaging for G3BP1-mCherry granules. DRG neurons were transfected with G3BP1-mCherry, and 36 h later distal axons were imaged using Leica SP8X confocal microscope with environmental chamber maintained at 37° C., 5% CO2 (with 63×/1.4 NA oil immersion objective). G3BP1-mCherry signals were imaged as single optical planes in the axon shaft every 2 s for 100 frames (at 540 nm excitation and 23% white light laser power; 565-597 nm emission). To study the effect of the G3BP1 190-208 or 168-189 peptide, 10 μM FITC-conjugated peptide was added to the media and 15 min later imaging was continued.
For quantitation of G3BP1-mCherry aggregates density and size, a 100 μm of the axon shaft was considered (≥200 μm from cell body). Thresholding was applied to acquired image sequences using ImageJ to generate binary masks.
ImageJ particle analyzer was used for analysis. G3BP1 aggregates with area≥1 μm^2 were considered as SG-like structures. For analyzing the G3BP1 aggregate velocity, ImageJ Trackmate plug-in was used.

[3] = tested on: wild-type or ALS/FTD-associated mutant (P362L, A381T, E384K) TIA1-GFP in HEK cells; test: TIA1-GFP aggregates in arsenite-treated HEK cells; format: cell-based
Excerpt: The inventors tested whether the G3BP1 190-208 peptide would prevent the aggregation of granules formed by TIA1 and TDP43 mutant proteins associated with ALS and FTD. […] Next, we treated HEK cells expressing wild-type and or ALS/FTD-associated mutants (P362L, A381T, or E384K)TIA1, with arsenite a potent inducer of SG aggregation, in addition to either G3BP1 190-208 peptide or control G3BP1 168-189 peptide.
FIG. 5: Cell permeable G3BP1 190-208 peptide decreases TIA1-GFP puncta formed due to expression of disease causing TIA1 mutants. (A) Representative images of HEK cells transfected with GFP-tagged wild-type or ALS/FTD-associated mutants (P362L, A381T, or E384K) TIA1. Arrows show TIA1-GFP puncta. (B) Quantification of the percentage of cells with TIA1-GFP puncta greater than 2 μm^2 area in transfected cells relative TIA1-WT-GFP expressing cells. Consistent with previous studies, ALS/FTD- associated TIA1 mutants show increased number of TIA1-GFP puncta as compared to WT-TIA1. (C) HEK cells expressing TIA1-GFP or ALS/FTD-associated mutants TIA1-P362L, TIA1-A381T, TIA1-E384K were treated with sodium arsenite (0.5 mM) for 30 minutes followed by treatment with either 10 μM 190-208 G3BP1 or 168-189 control peptide. The number of cells containing TIA1-GFP puncta were measured and results are reported relative to non-treated controls. Number of HEK cells with TIA1-GFP granules both for WT and ALS/FTD mutants decreased after treatment with 10 μM 190-208 G3BP1 as compared to the 168-189 control peptide treated cells. (N≥90 over 3 cultures; by two-way ANOVA with Tukey HSD post-hoc). Scale bar: 20 μm.

HB9::GFP MN axons = format: cell-based, mouse
MN axons = format: cell-based, mouse
[4] = molecular target: DCP1A, endogenous rat protein in axons of cultured adult DRG neurons (rat) (UniProt D4AE80); test: proximity ligation assay in axons of fixed rat DRG neurons
[5] = molecular target: HuR (ELAVL1), endogenous rat protein in axons of cultured adult DRG neurons (rat) (UniProt B5DF91); test: as above
[6] = tested on: G3BP1 aggregates in E12.5 motor neurons; test: Endogenous G3BP1 aggregates in MPP+-treated motor neurons; format: cell-based, mouse; conditions: 100 μM MPP+ alone vs control
Protocol: Previous studies have shown that, exposure of midbrain neurons results in formation of stress granules. To test whether treatment of motor neurons with mitotoxin MPP+ results in the formation of stress granules the inventors stained the MPP+-treated neurons for G3BP1 protein.
(A) Quantification of mitotoxin/neurotoxin MPP+-induced degeneration of DIV7 E12.5 motor neuron neurites after exposure of cultures to 100 μM MPP+ and either 10 μM 190-208 G3BP1 or 168-189 control peptide. As controls, neurons treated with solvents were used. (B) Representative images of G3BP1 (green) and NF-labeled (red) E12.5 motor neurons under control or after treatment with 100 μM MPP+ [scale bar=10 μm]. (C) distribution of sizes of endogenous G3BP1 aggregate per 100 μm neurite is shown as indicated bins from motor neurons cultures as treated in (B). (N≥80 neurites over three repetitions; by one-way ANOVA with Tukey HSD post-hoc). […] (D) Endogenous G3BP1 aggregate sizes per 100 μm neurite indicated as bins for motor neurons either untreated or treated with MPP+ alone or with addition of 10 μM 190-208 G3BP1 or 168-189 control peptide. […] (N≥90 over 3 cultures; by one-way ANOVA with Tukey HSD post-hoc)

[7] = tested on: G3BP1, TIA1, FMRP, FXR, TDP43 and FUS-TLS aggregates in E18 midbrain neurons; test: RNA binding protein aggregates along axons of MPP+-treated midbrain neurons; format: cell-based, rat; conditions: 100 μM MPP+ 6 hours
Protocol: FIGS. 14A-14F show PD-causing MPP^+ increases RNA binding protein aggregation. Representative confocal images for G3BP1 (magenta), FMRP (green), FXR (red) and neurofilament immunoreactivity along axons for E18 midbrain neuron cultures (7 DIV)±100 μM MPP^+ for 6 hours are shown in FIG. 14A. […] Quantifications for colocalization of FMRP, FXR, TDP43, FUS-TLS and TIA1 with G3BP1 in axons of E18 midbrain neurons treated. as in FIG. 14A are shown as average Pearson's coefficient±SEM shown in FIG. 14E.

[8] = tested on: G3BP1 aggregates in midbrain neurons; test: Endogenous G3BP1 aggregates in MPP+-treated midbrain neurons; format: cell-based, rat; conditions: MPP+ alone
Excerpt: Given that the G3BP1 190-208 peptide prevents degeneration induced by treatment with neurotoxins such as MPP+ and Aβ oligomer and decreases G3BP1 aggregates formed due MPP+ and Aβ treatment.
(A) Size of endogenous G3BP1 aggregates per 100 μm of neurite is shown as indicated bins from midbrain cultures under control conditions and after treatment with MPP+alone or with 190-208 G3BP1 or 168-189 peptides. (B) Size distribution of endogenous G3BP1 aggregates per 100 μm of neurite is shown from cortical neurons treated with 1 μM Aβpeptide or with […] 190-208 G3BP1 or 168-189 control peptide. Non-treated neurons were used as a control. […] (N≥90 over 3 cultures; by two-way ANOVA with Tukey HSD post-hoc).

[9] = local axonal administration, Anisomycin 40 μM, Cycloheximide 150 μM, NaAsO2 250 μM
[10] = applied exclusively in axons, NaAsO2 250 μM, Anisomycin 40 μM, Cycloheximide 150 μM

HuR (ELAVL1), endogenous rat protein in axons of cultured adult DRG neurons (rat), sequence (B5DF91 2-326): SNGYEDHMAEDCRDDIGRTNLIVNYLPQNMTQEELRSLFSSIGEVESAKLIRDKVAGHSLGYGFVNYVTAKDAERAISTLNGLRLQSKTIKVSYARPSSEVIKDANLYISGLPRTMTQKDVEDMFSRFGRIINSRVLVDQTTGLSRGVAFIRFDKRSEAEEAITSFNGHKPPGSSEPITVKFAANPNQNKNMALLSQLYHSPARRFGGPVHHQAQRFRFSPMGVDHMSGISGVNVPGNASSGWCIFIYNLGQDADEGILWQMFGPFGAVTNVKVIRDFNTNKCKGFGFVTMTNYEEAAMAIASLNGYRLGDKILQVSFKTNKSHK

## EESEEEVEEPEENQQSPEVV-YGNKKNNQNNN (EESEEEVEEPEENQQSPEVVYGNKKNNQNNN; listed as Rattus norvegicus) [147-166, cell-permeable Tat fusion peptide corresponding to residues 147-166 of rat G3BP1]
DRG neurons
  axon length: increased axon length

## DDSGTFYDQTVSNDLEEHLEEP-YGNKKNNQNNN [168-189 peptide, reference compound]
[1]; WT and mutant TIA1-GFP, sodium arsenite 0.5 mM 30 minutes, then 10 μM peptide
  number of large TIA1-GFP granules (>2 μm^2) in neurites: no such effect
[2]
  density of axonal G3BP1-mCherry aggregates along 100 μm axon: no change in SG density
  size of G3BP1-mCherry aggregates (SG-like structures): modest but insignificant decrease in SG size
DRG neurons
  axon length: lacked activity
[3]; sodium arsenite 0.5 mM 30 minutes, then 10 μM peptide, WT and mutant TIA1
  size of TIA1 aggregates: no such change in aggregate size

## sodium arsenite [NaAsO2, reference compound]
HB9::GFP MN axons
  mitochondrial membrane potential (TMRE): notable reduction in mitochondrial membrane potential
[1]; arsenite alone
  size of endogenous TIA1 and G3BP1 aggregates: increase in the size of endogenous TIA1 and G3BP1 aggregates
[1]; arsenite alone, WT and mutant TIA1-GFP
  number of larger TIA1-GFP granules (>2 μm^2): increase in the number of larger granules
[1]; arsenite alone, WT and mutant flag-TDP43
  number of large flag-TDP43 aggregates (>2 μm^2): increased number of large flag-TDP43 aggregates
MN axons
  axonal translation (OPP puncta): major decrease in axonal translation
[3]; sodium arsenite 0.5 mM alone, WT and mutants
  size of TIA1 aggregates: increases size of TIA1 aggregates

## G3BP1 (Ras GAP SH3 domain binding protein 1), endogenous rat protein in axons of cultured adult DRG neurons (from UniProt D3ZYS7 1-465)
[4]
  PLA signals per area: 0.027 signals/m^2
[5]
  PLA signals per area: 0.038

## COc1ccc(C[C@H]2NC[C@H](O)[C@H]2OC(C)=O)cc1 [Anisomycin]
HB9::GFP MN axons; [9]
  mitochondrial membrane potential (TMRE): notable reduction in mitochondrial membrane potential
MN axons; [10]
  axonal translation (OPP puncta): major decrease in axonal translation

## C[C@@H]1C[C@@H]([C@H](O)CC2CC(=O)NC(=O)C2)C(=O)[C@@H](C)C1 [Cycloheximide]
HB9::GFP MN axons; [9]
  mitochondrial membrane potential (TMRE): notable reduction in mitochondrial membrane potential
MN axons; [10]
  axonal translation (OPP puncta): major decrease in axonal translation

## C[n+]1ccc(-c2ccccc2)cc1 [MPP+, 1-methyl-4-phenylpyridinium, reference compound]
[6]
  endogenous G3BP1 aggregates: increase in G3BP1 aggregates; also recorded: formation of larger G3BP1 granules
[7]
  TIA1, FMRP, FXR, TDP43 and FUS-TLS colocalization with G3BP1: significant increase
  aggregate sizes of G3BP1, TIA1, FMRP, FXR, TDP43 and FUS-TLS along axons: significantly increases the aggregate sizes
  overall levels of these proteins: without any change in overall levels
[8]
  endogenous G3BP1 aggregates: increase in endogenous G3BP1 aggregates
